Test results reported in ChEMBL document CHEMBL1201862, “PubChem BioAssay data set” (2004).
Activity calls are given as the source filed them.

Assays:
Cytochrome P450 2C9 = Cytochrome P450 2C9 (Homo sapiens, UniProt P11712); settings: Potency
Cytochrome P450 2D6 = Cytochrome P450 2D6 (Homo sapiens, UniProt P10635); assay: qHTS Assay for Inhibitors and Substrates of Cytochrome P450 2D6. [Related pubchem assays: 410 ]; type: ADME; settings: read-out: Potency
Cytochrome P450 3A4 = Cytochrome P450 3A4 (Homo sapiens, UniProt P08684); settings: Potency;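 further: confirmatory qHTS run detecting inhibitors and substrates of CYP3A4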
[1] = mitochondrial function rescue without frataxin homolog – Friedreich's ataxia, plus single-dose screen, dose response (AID 1465); type: functional;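 further: yeast depleted of Yfh1p frataxin homolog grown on glycerol needing respiration; WST-1 tetrazolium dye reduction as measure of cellular dehydrogenase metabolic activity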
Leucine aminopeptidase = biological target: T1, Leucine aminopeptidase (Plasmodium falciparum 3D7, UniProt Q8IL11); assay: P. falciparum M17LAP inhibitors, primary screen, biochemical, fluorogenic H-Leu-NHMec substrate, 1536-well (AID 1619); type: functional
T1 sequence (Q8IL11 whole entry): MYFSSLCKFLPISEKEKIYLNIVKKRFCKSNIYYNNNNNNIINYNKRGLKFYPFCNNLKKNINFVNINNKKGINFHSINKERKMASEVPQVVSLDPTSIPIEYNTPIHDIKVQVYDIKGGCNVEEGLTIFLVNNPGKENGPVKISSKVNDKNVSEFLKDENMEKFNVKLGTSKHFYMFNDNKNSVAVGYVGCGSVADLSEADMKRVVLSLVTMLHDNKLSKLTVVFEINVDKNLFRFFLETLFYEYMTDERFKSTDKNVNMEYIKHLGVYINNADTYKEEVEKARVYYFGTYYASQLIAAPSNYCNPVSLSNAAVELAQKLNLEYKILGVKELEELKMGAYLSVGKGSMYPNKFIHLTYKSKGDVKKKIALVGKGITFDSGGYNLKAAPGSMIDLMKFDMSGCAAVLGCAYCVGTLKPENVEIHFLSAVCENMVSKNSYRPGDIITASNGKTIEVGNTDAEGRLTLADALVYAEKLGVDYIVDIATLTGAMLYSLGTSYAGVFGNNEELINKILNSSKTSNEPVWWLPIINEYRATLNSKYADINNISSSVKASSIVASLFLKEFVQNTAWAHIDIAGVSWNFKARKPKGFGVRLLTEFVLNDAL

Insulin-degrading enzyme = biological target: T2, Insulin-degrading enzyme (Homo sapiens, UniProt P14735); assay: Dose Response: Fluorescence polarization-based cell-based high throughput dose response assay for inhibitors of insulin-degrading enzyme (IDE). [Related pubchem assays: 434962 (Primary screen (IDE inhibitors in singlicate)), 449730 (Counterscreen (Cytotoxicity in triplicate)), 435028 (Confirmation (IDE inhibitors in triplicate)), 434984 (Summary …; type: functional
T2 sequence (P14735 whole entry): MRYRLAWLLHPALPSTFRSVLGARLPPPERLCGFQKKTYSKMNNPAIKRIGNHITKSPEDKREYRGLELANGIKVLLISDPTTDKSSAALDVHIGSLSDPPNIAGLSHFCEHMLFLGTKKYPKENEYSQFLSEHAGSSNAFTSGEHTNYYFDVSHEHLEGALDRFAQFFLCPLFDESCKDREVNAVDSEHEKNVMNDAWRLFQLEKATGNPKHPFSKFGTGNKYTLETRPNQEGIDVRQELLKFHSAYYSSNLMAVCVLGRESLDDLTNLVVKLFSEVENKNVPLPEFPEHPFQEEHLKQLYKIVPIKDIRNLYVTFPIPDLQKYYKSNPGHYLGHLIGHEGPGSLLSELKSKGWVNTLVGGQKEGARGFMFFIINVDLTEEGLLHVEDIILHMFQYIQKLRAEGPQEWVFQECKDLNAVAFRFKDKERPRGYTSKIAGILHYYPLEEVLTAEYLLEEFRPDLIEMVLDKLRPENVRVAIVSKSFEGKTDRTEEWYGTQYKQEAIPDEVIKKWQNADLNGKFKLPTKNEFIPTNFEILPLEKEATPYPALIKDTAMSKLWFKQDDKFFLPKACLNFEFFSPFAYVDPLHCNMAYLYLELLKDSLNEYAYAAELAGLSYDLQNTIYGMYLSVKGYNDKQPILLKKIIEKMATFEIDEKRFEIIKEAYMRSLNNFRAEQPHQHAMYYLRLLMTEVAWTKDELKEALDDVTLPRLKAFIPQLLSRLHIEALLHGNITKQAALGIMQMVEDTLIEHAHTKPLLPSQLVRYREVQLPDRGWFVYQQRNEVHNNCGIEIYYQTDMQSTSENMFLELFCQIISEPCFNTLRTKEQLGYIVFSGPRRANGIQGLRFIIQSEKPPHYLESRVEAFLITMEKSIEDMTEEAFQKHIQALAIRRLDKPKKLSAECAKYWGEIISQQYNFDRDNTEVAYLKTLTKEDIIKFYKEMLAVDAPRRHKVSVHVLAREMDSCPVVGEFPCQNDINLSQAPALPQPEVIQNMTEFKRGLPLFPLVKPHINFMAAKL

[2] = Counterscreen for IDE inhibitors: Luminescence-based cell-based high throughput dose response assay to identify compounds that are cytotoxic to HEK cells. [Related pubchem assays: 434962 (Primary screen (IDE inhibitors in singlicate)), 449730 (Counterscreen (Cytotoxicity in triplicate)), 435028 (Confirmation (IDE inhibitors in triplicate)) …; type: functional; settings: HEK293
Trypsin = Trypsin (Sus scrofa, UniProt P00761); assay: trypsin protease activity blockade – biochemical, quenched peptide fluorescence, cherry-pick, selectivity assay for Rce1 protease inhibitor project, dose response (AID 488789)
Chain of Trypsin (P00761 whole entry): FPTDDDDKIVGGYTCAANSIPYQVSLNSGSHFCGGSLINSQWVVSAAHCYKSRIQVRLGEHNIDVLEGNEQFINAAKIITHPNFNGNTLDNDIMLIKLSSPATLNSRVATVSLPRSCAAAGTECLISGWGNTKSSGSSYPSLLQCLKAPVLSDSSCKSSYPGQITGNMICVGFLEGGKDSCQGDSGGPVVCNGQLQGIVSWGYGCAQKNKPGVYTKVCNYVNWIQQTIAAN

CAAX prenyl protease 2 [3] = biological target: CAAX prenyl protease 2 (Saccharomyces cerevisiae S288c, UniProt Q03530); type: biochemical
Chain of CAAX prenyl protease 2 (Saccharomyces cerevisiae S288c, UniProt Q03530) (Q03530 whole entry): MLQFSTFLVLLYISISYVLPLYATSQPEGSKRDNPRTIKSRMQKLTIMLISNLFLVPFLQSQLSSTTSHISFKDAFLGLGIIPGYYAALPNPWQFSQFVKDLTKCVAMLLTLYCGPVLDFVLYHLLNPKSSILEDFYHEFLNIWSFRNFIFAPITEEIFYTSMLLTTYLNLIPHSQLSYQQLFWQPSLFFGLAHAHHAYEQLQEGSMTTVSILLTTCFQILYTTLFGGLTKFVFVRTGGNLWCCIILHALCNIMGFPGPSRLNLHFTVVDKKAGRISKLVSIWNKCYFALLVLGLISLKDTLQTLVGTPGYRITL

CAAX prenyl protease 2 [4] = biological target: T3, CAAX prenyl protease 2 (Homo sapiens, UniProt Q9Y256); assay: inhibition of Ras-converting CAAX protease Rce1 – biochemical, yeast membranes, quenched-peptide fluorescence, cherry-pick, dose response (AID 588849)
T3 sequence (Q9Y256 whole entry): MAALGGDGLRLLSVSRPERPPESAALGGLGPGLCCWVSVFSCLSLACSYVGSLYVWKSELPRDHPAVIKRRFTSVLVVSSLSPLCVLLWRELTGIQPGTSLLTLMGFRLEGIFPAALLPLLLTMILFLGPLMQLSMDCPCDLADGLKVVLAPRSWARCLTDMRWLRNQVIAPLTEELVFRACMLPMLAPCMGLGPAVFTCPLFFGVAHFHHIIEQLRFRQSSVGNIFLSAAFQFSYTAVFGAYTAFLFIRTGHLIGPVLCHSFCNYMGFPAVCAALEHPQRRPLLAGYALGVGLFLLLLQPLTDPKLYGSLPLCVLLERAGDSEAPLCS

[5] = biological target: Peroxisome proliferator-activated receptor gamma/Nuclear receptor coactivator 1 (Homo sapiens, UniProt P37231); assay: TR-FRET dose response biochemical High Throughput Screening assay for agonists of the steroid receptor coactivator 1 (SRC-1) recruitment by the peroxisome proliferator-activated receptor gamma (PPAR gamma): non-selective agonists. [Related pubchem assays (depositor defined):AID1300, AID1808, AID504735, AID631]; type: protein assay
[6] = biological target: Photoreceptor-specific nuclear receptor (Homo sapiens, UniProt Q9Y5X4); type: functional;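 further: potency for compounds that break the NR2E3 corepressor complex and count as activators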
[7] = biological target: Peroxisome proliferator-activated receptor gamma/Nuclear receptor coactivator 2 (Homo sapiens, UniProt P37231); assay: (§1) TR-FRET dose response biochemical High Throughput Screening assay for agonists of the steroid receptor coactivator 2 (SRC-2) recruitment by the peroxisome proliferator-activated receptor gamma (PPAR gamma): non-selective agonists. [Related pubchem assays: 1297, 1032 ]; type: functional
[8] = biological target: Peroxisome proliferator-activated receptor gamma/Nuclear receptor coactivator 3 (Homo sapiens, UniProt P37231); assay: as §1, with “3 (SRC-3)” for “2 (SRC-2)”, “1301 (Confirmation screen.), 1048 (Primary screen.)]” for “1297, 1032 ]”; type: functional
[9] = biological target: Peroxisome proliferator-activated receptor gamma/Nuclear receptor corepressor 2 (Homo sapiens, UniProt P37231+Q9Y618); type: functional
[10] = biological target: Induced myeloid leukemia cell differentiation protein Mcl-1 (Homo sapiens, UniProt Q07820); type: functional
Chain of Induced myeloid leukemia cell differentiation protein Mcl-1 (Q07820 whole entry): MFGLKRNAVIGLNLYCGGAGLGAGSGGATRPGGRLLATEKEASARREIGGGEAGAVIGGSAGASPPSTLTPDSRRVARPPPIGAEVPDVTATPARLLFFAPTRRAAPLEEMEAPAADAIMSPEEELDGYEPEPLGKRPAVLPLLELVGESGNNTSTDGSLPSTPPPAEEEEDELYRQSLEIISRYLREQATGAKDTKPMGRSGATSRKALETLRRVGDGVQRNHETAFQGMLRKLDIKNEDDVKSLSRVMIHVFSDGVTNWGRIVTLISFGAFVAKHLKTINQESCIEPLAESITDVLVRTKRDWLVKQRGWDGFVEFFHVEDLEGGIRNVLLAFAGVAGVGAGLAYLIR

[11] = biological target: T4, Voltage-gated N-type calcium channel alpha-1B subunit/Amyloid beta A4 precursor protein-binding family A member 1 (Homo sapiens, UniProt Q00975+Q02410); type: protein assay
T4 sequence (Q00975 whole entry): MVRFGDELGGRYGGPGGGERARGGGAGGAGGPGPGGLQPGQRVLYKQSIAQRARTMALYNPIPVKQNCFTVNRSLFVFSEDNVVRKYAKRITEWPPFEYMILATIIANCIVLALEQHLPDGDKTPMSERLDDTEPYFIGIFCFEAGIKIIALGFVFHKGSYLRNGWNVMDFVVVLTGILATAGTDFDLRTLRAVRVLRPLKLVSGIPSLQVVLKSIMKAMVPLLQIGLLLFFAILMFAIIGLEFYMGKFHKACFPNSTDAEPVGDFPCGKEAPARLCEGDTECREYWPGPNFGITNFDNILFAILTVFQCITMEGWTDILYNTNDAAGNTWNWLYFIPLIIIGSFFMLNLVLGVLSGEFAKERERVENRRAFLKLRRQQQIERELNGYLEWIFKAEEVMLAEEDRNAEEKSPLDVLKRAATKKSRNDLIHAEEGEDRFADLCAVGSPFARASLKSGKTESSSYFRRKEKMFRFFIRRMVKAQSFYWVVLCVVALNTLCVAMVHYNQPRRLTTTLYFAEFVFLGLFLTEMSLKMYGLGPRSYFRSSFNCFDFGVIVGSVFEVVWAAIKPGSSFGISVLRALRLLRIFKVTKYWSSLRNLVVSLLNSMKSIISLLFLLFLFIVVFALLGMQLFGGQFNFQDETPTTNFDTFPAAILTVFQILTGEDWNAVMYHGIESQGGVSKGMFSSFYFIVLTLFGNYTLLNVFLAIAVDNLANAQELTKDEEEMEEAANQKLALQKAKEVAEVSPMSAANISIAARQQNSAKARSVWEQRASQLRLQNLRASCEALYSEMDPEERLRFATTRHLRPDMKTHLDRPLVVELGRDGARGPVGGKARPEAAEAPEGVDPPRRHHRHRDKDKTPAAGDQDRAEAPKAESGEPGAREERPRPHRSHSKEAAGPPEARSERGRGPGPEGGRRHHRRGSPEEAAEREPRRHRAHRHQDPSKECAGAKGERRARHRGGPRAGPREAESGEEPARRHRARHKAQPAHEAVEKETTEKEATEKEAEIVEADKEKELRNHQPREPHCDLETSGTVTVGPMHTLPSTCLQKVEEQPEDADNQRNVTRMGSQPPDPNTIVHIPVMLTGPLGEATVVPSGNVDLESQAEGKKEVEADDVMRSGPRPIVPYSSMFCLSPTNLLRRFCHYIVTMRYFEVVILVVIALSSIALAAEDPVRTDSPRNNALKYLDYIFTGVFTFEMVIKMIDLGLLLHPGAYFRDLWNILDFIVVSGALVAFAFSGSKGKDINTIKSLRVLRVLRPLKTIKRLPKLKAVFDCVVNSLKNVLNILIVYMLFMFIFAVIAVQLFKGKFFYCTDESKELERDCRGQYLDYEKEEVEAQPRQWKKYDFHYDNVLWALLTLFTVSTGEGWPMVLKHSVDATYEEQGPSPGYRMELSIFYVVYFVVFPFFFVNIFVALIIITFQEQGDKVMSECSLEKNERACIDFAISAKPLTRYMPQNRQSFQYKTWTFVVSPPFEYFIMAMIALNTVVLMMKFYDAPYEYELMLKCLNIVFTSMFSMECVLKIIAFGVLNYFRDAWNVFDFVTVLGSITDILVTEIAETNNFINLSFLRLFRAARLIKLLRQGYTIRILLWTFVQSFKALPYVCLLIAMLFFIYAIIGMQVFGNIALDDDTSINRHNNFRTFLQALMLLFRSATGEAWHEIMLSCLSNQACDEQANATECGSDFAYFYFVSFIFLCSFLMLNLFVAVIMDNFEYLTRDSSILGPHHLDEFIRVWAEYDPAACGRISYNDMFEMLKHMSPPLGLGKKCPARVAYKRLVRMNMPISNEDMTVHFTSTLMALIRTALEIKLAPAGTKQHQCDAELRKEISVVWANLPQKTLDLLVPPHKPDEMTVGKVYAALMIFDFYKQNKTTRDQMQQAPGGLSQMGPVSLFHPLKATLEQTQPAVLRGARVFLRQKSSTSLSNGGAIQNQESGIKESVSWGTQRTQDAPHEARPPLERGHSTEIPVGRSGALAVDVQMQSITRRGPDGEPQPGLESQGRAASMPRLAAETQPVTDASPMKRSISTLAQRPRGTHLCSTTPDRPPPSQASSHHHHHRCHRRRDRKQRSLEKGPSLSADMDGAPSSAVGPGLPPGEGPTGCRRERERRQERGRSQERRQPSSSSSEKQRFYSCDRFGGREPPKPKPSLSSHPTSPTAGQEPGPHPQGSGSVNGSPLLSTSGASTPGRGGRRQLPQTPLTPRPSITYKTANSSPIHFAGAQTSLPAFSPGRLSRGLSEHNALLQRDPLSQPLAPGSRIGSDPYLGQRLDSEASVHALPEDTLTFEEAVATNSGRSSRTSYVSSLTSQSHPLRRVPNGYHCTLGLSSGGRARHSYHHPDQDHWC
T4 sequence (Q02410 whole entry): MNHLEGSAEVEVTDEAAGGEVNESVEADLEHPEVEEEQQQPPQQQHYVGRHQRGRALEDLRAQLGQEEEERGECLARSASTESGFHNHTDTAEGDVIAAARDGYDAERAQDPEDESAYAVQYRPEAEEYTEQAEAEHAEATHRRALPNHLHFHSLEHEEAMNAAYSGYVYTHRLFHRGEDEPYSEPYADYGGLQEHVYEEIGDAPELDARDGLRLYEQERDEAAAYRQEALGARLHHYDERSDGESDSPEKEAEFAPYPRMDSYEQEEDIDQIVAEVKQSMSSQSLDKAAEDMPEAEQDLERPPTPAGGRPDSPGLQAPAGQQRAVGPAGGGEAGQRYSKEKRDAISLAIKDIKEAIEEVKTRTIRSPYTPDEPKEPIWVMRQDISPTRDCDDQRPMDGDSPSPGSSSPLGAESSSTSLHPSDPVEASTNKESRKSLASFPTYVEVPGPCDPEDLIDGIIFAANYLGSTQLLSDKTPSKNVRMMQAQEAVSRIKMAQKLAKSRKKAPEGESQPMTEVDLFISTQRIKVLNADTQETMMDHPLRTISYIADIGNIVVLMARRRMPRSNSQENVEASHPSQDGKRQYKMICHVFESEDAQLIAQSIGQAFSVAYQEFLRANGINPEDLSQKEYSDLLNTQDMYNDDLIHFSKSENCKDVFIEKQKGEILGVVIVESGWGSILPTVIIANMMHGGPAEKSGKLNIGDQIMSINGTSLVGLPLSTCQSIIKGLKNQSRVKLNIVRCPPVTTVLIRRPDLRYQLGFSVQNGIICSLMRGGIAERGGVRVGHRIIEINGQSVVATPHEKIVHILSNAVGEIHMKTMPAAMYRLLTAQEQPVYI

[12] = biological target: T4, Voltage-gated N-type calcium channel alpha-1B subunit/Amyloid beta A4 precursor protein-binding family A member 1; type: protein assay; remark: listed apart in the source

Chain of Cytochrome P450 2D6 (P10635 whole entry): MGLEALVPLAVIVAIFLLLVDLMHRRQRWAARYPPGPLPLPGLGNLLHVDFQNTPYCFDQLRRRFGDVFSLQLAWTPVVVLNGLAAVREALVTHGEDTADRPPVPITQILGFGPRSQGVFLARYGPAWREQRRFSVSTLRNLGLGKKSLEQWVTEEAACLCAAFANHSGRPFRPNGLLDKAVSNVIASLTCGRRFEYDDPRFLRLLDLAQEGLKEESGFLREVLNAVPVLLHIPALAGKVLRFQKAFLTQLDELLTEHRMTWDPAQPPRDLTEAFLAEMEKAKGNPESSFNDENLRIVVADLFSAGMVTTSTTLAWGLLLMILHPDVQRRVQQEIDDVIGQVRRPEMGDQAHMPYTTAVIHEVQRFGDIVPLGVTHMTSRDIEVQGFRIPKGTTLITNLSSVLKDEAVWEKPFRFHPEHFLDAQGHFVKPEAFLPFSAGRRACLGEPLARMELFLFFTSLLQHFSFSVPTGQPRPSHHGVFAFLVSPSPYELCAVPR
Chain of Cytochrome P450 2C9 (P11712 whole entry): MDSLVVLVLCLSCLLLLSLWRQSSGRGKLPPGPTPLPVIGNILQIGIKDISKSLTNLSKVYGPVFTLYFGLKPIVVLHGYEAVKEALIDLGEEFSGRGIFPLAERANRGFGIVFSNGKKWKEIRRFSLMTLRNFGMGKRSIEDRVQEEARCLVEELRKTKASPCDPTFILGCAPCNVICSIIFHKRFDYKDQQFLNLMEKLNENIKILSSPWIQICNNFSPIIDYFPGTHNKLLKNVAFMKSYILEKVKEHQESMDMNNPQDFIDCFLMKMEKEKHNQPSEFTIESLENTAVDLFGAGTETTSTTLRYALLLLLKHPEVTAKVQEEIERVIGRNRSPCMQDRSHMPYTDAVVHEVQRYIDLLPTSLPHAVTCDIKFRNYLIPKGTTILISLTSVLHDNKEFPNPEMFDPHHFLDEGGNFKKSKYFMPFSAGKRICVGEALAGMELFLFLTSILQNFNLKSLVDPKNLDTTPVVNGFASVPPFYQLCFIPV

Q: With `Nc1c(S(=O)(=O)O)cc(Nc2ccc(Nc3nc(Cl)nc(Nc4ccc(S(=O)(=O)O)cc4)n3)c(S(=O)(=O)O)c2)c2c1C(=O)c1ccccc1C2=O` as the compound, how does the AC50 (Cytochrome P450 2C9) read?
A: 39.8 µM (inconclusive)

Q: And the AC50 (Cytochrome P450 2D6)?
A: 39.8 µM (inconclusive)

Q: What about the AC50 (Cytochrome P450 3A4) of the same compound?
A: 25.1 µM (inconclusive)

Q: For `CCN(CC)c1ccc(/C=C(/C#N)C(=O)NC(C)C)o1`, which EC50 [1] is on record?
A: > 100 µM (active)

Q: And the IC50 (Leucine aminopeptidase)?
A: 65.8 µM (active)

Q: And the IC50 (Insulin-degrading enzyme)?
A: 13.2 µM (not active)

Q: And the IC50 [2]?
A: > 55.7 µM (not active)

Q: With `Cc1cc(C)cc(Nc2ccc(C(=O)O)cc2N)c1` as the compound, how does the AC50 (Trypsin) read?
A: 2.73 µM (active)

Q: And the AC50 (CAAX prenyl protease 2 [3])?
A: 84.5 µM (active)

Q: What about the AC50 (CAAX prenyl protease 2 [4]) of the same compound?
A: 3.8 µM (active)

Q: Which EC50 [5] does the source give for `O=C(Nc1nc(-c2cccs2)c(C(=O)C(F)(F)F)s1)c1ccco1` here?
A: > 79.4 µM (inactive)

Q: What about the IC50 [6] of the same compound?
A: > 39.8 µM (not active)

Q: What about the EC50 [7] of the same compound?
A: 50 µM (not active)

Q: And the EC50 [8]?
A: > 79.4 µM (not active)

Q: What about the IC50 [9] of the same compound?
A: 2.22 µM (active)

Q: What does the source list for `Cc1ccc(-c2nc3c(c(=O)[nH]c(=O)n3Cc3ccccc3)n2C)o1`?
A: IC50 [10]: 4.71 µM (active); IC50 [11]: 6.07 µM (active); IC50 [12]: 6.21 µM (active)
